# According to patent publication US8329643B2, “PIMAP39 modulates LPS-induced inflammatory response” (Trustees of Boston University, priority 2008, dated 2012):
# “Also recorded” adds a separate entry of the source. No end group written: not given here.
# How the values were obtained:
# [1] = test system: white blood cells within the liver sections; experiment: Fluorescence microscopy detection of FITC-labeled PIMAP39 in mouse liver sections after tail vein injection; assay type: in vivo; conditions: 1 mg FITC-PIMAP39 by tail vein injection, one hour post injection, vs DMSO alone
# Protocol: Macrophage samples: Cells (5×10^3) from 3 month old mice were seeded over cover slips (22 mm) in 6-well plates and were treated with 500 ng/ml FITC-PIMAP39 (B) or DMSO alone (A) and continuously incubated overnight. Cover slips were removed and cells were stained with 50 nM LysoTracker Red DND-99 (Invitrogen) for 1.5 hours and then air-dried. Tissue section samples: Mice were treated with 1 mg of FITC-PIMAP39 (E, F) or DMSO alone as control (C, D), by tail vein injection as described. One hour post injection mice were sacrificed and their livers were harvested. Harvested livers were set in uniform orientations in molds using Histoprep™ (Fisher). 10 μm thick cross-sections were cut and transferred with a paintbrush to glass slides followed by H & E staining. Cross-sections were made at −24° C. using an HM505E cryostat (Microm). Both the treated cells and sections above were exposed to visible light for structural identification (C & E) and fluorescent light for signal location (A, B, D & F) by Olympus BX40 microscope at 200× (A & B) or 1000× (C-F) magnification and photographed. The FITC-PIMAP39-induced fluorescent signal in some macrophages (B) or in the leukocytes within the veins of the liver (F) was observed. The images were taken with a MicroFIRE camera under exposure time (1 second for fluorescent light, 30 second for visible light). […]
# [2] = test system: LPS-induced endotoxic shock; experiment: Endotoxic shock assay: survival of mice after lethal dose of LPS + D-Gal; assay type: in vivo, mouse; conditions: lethal dose LPS + control peptide
# Protocol: (§1) (A) Weight-matched wild-type mice (n=15) were injected intraperitoneal (i.p.) with a lethal dose of LPS (1 mg D-Gal+12.5 ng LPS per gram body weight) followed immediately by tail vein injection of DMSO (black line), 40 µg/g SCpep as control (green line) or […] PIMAP39 (red line). The treated mice were monitored for their behavior and mortality every hour. The survival time of each treated mouse was graphed. […] (B) Blood was collected every 2 hours post injection for a total duration of 6 hours. Mice were warmed under heating lamps to promote blood flow and a small incision was made on the tail. About 10-50 μl of blood was collected per animal at each time point (2, 4 or 6 hours). […] Pooled plasma samples from the mice within each group were measured in triplets by ELISA (Abraxis) to see the effects of PIMAP39 on TNF-α production. ELISA immunoreactivity was quantitated using a microplate reader (Bio-Rad) and the results from the 6 hr mark were graphed (only the data for LPS+DMSO and LPS+PIMAP39 are presented here due to the similarity between LPS+DMSO and LPS+SCepetide). […]
# (§2) To investigate how PIMAP39 mediates endotoxic shock, 3 month old, weight matched mice were treated with a lethal dose of LPS (12.5 ng LPS+1 mg D-Gal per gram body weight) followed immediately by a tail vein injection of PIMAP39 or controls. The treated mice were monitored for their behavior and mortality every hour. […]
# [3] = test system: TNF-α; experiment: Plasma TNF-α by ELISA in the endotoxic shock assay; assay type: in vivo, mouse; conditions: 6 hr mark
# Protocol: as §1, §2
Sequence,"presence / uptake of peptide in white blood cells in vivo (liver sections, fluorescent signal) [1]",time at which deaths occurred [2] [h],time at which most mice became sick [2] [h],plasma TNF-α compared with LPS+DMSO [3]
KYGATTVVRVCEVTYDKTPLEKDGITVV [PIMAP39],cell permeable; also recorded: taken up,–,–,–
VTGKLTDTEVVTAYVIDEPKYVCRVTGK [SCpep],–,6 to 8,3 to 4,similarity
